# Measurements from US20120021973A1, “Peptides for Treatment of Obesity” (priority 2008, published 2012).
# *1 amine or outer side, *2 acyl side, *3 side chain or, on linkers, in order; H or OH if unused. Where a SMILES comes first, the peptide text is derived from it. Bridges are numbered along the chain shown (N, C = ends). [ ]: non-standard residue; d: D form. The star is where a group is joined. Palmitoyl(16-(5-tetrazolyl)) = O=C(CCCCCCCCCCCCCCCc1nnn[nH]1)*; Lys(CH2CO2H)2 = N[C@@H](CCCCN(CC(=O)O)CC(=O)O)C(=O)O; X1 = O=C(O)CN(CC(=O)O)C[C@H](N[*:1])C(=O)[*:2]; C20 diacid = O=C(O)CCCCCCCCCCCCCCCCCCC(=O)*; Hyp = O=C(O)[C@@H]1C[C@@H](O)CN1; NTA = O=C(O)CN(CC(=O)O)CC(=O)*; Nle = CCCC[C@H](N)C(=O)O; Dap = NC[C@H](N)C(=O)O; AEEA = NCCOCCOCC(=O)O; βAla = NCCC(=O)O
# System: ad libitum fed rat
# Assay: Assay (I) efficacy testing on appetite, ad libitum fed rat model
# Format: in vivo
# Method: Assay (I)— Experimental Protocol for Efficacy Testing on Appetite with MC4 Analogues, Using an Ad Libitum Fed Rat Model.
# TAC:SPRD @mol rats or Wistar rats from M&B Breeding and Research Centre A/S, Denmark are used for the experiments. The rats have a body weight 200-250 g at the start of experiment. The rats arrive at least 10-14 days before start of experiment with a body weight of 180-200 g. Each dose of compound is tested in a group of 8 rats. A vehicle group of 8 rats is included in each set of testing.
# When the animals arrive they are housed individually in a reversed light/dark phase (lights off 7:30 am, lights on 7:30 pm), meaning that lights are off during daytime and on during nighttime. Since rats normally initiate food intake when light is removed, and eat the major part of their daily food intake during the night, this set up results in an alteration of the initiation time for food intake to 7:30 am, when lights are switched off. During the acclimatization period of 10-14 days, the rats have free access to food and water. During this period the animals are handled at least 3 times. The experiment is conducted in the rats' home cages. Immediately before dosing the rats are randomised to the various treatment groups (n 8) by body weight. They are dosed according to body weight at between 7:00 am and 7:45 am, with a 1-3 mg/kg solution administered intraperitoneally (ip), orally (po) or subcutaneously (sc). The time of dosing is recorded for each group. After dosing, the rats are returned to their home cages, where they then have access to food and water. The food consumption is recorded individually every hour for 7 hours, and then after 24 h and sometimes 48 h. At the end of the experimental session, the animals are euthanised.
# The individual data are recorded in Microsoft excel sheets. Outliers are excluded after applying the Grubbs statistical evaluation test for outliers, and the result is presented graphically using the GraphPad Prism program.
SMILES,Food consumption (% of vehicle) 24 h (3 mg/kg),Food consumption (% of vehicle) 48 h (3 mg/kg),Food consumption (% of vehicle) 24 h (1 mg/kg),Food consumption (% of vehicle) 48 h (1 mg/kg)
"CCCC[C@H](NC(=O)[C@H](CNC(=O)CN(CC(=O)O)CC(=O)O)NC(=O)[C@H](CO)NC(=O)[C@H](CCC(N)=O)NC(=O)[C@H](CO)NC(=O)CNC(=O)COCCOCCNC(=O)CCCCCCCCCCCCCCCc1nnn[nH]1)C(=O)N[C@H]1CCC(=O)NCCCC[C@@H](C(N)=O)NC(=O)[C@H](Cc2c[nH]c3ccccc23)NC(=O)[C@H](CCCNC(=N)N)NC(=O)[C@@H](Cc2ccccc2)NC(=O)[C@@H]2C[C@@H](O)CN2C1=O [Example 4, (2-{2-[16-(Tetrazol-5-yl)hexadecanoylamino]ethoxy}ethoxy)acetyl-Gly-Ser-Gln-Ser-Dap(BCMA)-Nle-c[Glu-Hyp-D-Phe-Arg-Trp-Lys]-NH2] ({Palmitoyl(16-(5-tetrazolyl))-AEEA}-GSQS[Dap](NTA)[Nle]E[Hyp][dF]RWK-NH2; lactam 7-12)",52 % of vehicle,69 % of vehicle,,
"CCCC[C@H](NC(=O)[C@H](CN(CC(=O)O)CC(=O)O)NC(=O)[C@H](Cc1c[nH]cn1)NC(=O)[C@H](CCC(N)=O)NC(=O)[C@H](CO)NC(=O)CNC(=O)COCCOCCNC(=O)CCCCCCCCCCCCCCCc1nnn[nH]1)C(=O)N[C@H]1CCC(=O)NCCCC[C@@H](C(N)=O)NC(=O)[C@H](Cc2c[nH]c3ccccc23)NC(=O)[C@H](CCCNC(=N)N)NC(=O)[C@@H](Cc2ccccc2)NC(=O)[C@@H]2C[C@@H](O)CN2C1=O [Example 6, (2-{2-[16-(Tetrazol-5-yl)hexadecanoylamino]ethoxy}ethoxy)acetyl-Gly-Ser-Gln-His-Dap(biscarboxymethyl)-Nle-c[Glu-Hyp-D-Phe-Arg-Trp-Lys]-NH2] ({Palmitoyl(16-(5-tetrazolyl))-AEEA}-GSQH[X1][Nle]E[Hyp][dF]RWK-NH2; lactam 7-12)",58 % of vehicle,69 % of vehicle,,
"CCCC[C@H](NC(=O)[C@H](CNC(=O)CN(CC(=O)O)CC(=O)O)NC(=O)[C@H](Cc1c[nH]cn1)NC(=O)[C@H](CCC(N)=O)NC(=O)[C@H](CO)NC(=O)CNC(=O)COCCOCCNC(=O)CCCCCCCCCCCCCCCc1nnn[nH]1)C(=O)N[C@H]1CCC(=O)NCCCC[C@@H](C(N)=O)NC(=O)[C@H](Cc2c[nH]c3ccccc23)NC(=O)[C@H](CCCNC(=N)N)NC(=O)[C@@H](Cc2ccccc2)NC(=O)[C@@H]2C[C@@H](O)CN2C1=O [Example 9, (2-{2-[16-(Tetrazol-5-yl)hexadecanoylamino]ethoxy}ethoxy)acetyl-Gly-Ser-Gln-His-Dap(BCMA)-Nle-c[Glu-Hyp-D-Phe-Arg-Trp-Lys]-NH2] ({Palmitoyl(16-(5-tetrazolyl))-AEEA}-GSQH[Dap](NTA)[Nle]E[Hyp][dF]RWK-NH2; lactam 7-12)",47 % of vehicle,57 % of vehicle,,
"CCCC[C@H](NC(=O)[C@H](CCCCNC(=O)CN(CC(=O)O)CC(=O)O)NC(=O)[C@H](CO)NC(=O)[C@H](CCC(N)=O)NC(=O)[C@H](CO)NC(=O)CNC(=O)COCCOCCNC(=O)CCCCCCCCCCCCCCCc1nnn[nH]1)C(=O)N[C@H]1CCC(=O)NCCCC[C@@H](C(N)=O)NC(=O)[C@H](Cc2c[nH]c3ccccc23)NC(=O)[C@H](CCCNC(=N)N)NC(=O)[C@@H](Cc2ccccc2)NC(=O)[C@@H]2C[C@@H](O)CN2C1=O [Example 15, (2-{2-[16-(Tetrazol-5-yl)hexadecanoylamino]ethoxy}ethoxy)acetyl-Gly-Ser-Gln-Ser-Lys(BCMA)-Nle-c[Glu-Hyp-D-Phe-Arg-Trp-Lys]-NH2] ({Palmitoyl(16-(5-tetrazolyl))-AEEA}-GSQSK(NTA)[Nle]E[Hyp][dF]RWK-NH2; lactam 7-12)",,,74 % of vehicle,85 % of vehicle
"CCCC[C@H](NC(=O)CCNC(=O)[C@H](CCCCN(CC(=O)O)CC(=O)O)NC(=O)[C@H](Cc1c[nH]cn1)NC(=O)[C@H](CCC(N)=O)NC(=O)[C@H](CO)NC(=O)[C@H](CO)NC(=O)[C@H](CCC(N)=O)NC(=O)[C@@H](CO)NC(=O)CNC(=O)COCCOCCNC(=O)COCCOCCNC(=O)CCCCCCCCCCCCCCCCCCC(=O)O)C(=O)N[C@H]1CCC(=O)NCCCC[C@@H](C(N)=O)NC(=O)[C@H](Cc2c[nH]c3ccccc23)NC(=O)[C@H](CCCNC(=N)N)NC(=O)[C@@H](Cc2ccccc2)NC(=O)[C@@H]2C[C@@H](O)CN2C1=O [Example 22, {2-[2-(2-{2-[2-(19-Carboxynonadecanoylamino)ethoxy]ethoxy}acetylamino)ethoxy]ethoxy}acetyl-Gly-D-Ser-Gln-Ser-Ser-Gln-His-Lys(biscarboxymethyl)-β-Ala-Nle-c[Glu-Hyp-D-Phe-Arg-Trp-Lys]-NH2] ({C20 diacid-AEEA-AEEA}-G[dS]QSSQH[Lys(CH2CO2H)2][βAla][Nle]E[Hyp][dF]RWK-NH2; lactam 11-16)",,,59 % of vehicle,76 % of vehicle
